Columns and labels:
[1] = target: T1, Carboxylic ester hydrolase (Equus caballus, UniProt Q9N1N9); assay: (§1) Tested for kinetic data for the horse serum Butyrylcholinesterase-Catalyzed Hydrolysis of Butyrylthiocholine; 10e-3/M. sec; conditions: read-out: kon (M-1-s-1)
[2] = target: T1, Carboxylic ester hydrolase; assay: ChEBML_41403; conditions: read-out: kon (M-1-s-1); description: as §1

T1 sequence (Q9N1N9 whole entry): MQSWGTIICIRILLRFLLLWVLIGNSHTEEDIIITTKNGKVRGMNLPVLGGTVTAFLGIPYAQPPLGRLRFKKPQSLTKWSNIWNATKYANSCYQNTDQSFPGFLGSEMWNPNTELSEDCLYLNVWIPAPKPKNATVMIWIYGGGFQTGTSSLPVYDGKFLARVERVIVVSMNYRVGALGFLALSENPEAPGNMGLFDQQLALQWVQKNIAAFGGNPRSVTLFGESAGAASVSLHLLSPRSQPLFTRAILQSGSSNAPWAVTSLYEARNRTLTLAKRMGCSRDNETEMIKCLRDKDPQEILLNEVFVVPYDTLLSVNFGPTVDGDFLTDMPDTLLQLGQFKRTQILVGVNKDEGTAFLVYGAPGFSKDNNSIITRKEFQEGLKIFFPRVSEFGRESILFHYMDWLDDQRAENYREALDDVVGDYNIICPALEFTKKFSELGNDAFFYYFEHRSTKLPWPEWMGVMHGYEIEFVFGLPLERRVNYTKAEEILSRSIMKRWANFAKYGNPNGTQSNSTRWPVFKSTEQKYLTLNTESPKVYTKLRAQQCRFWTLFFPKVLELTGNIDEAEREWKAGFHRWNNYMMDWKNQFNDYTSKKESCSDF

Structure (SMILES) | kon [1] [M⁻¹ s⁻¹] | kon [2] [M⁻¹ s⁻¹]
CCCCNC(=O)OC1C2CC3CC(C2)CC1C3 (centres undefined) | 1800 | 
CCCCNC(=O)OC1C[C@H]2CCC1C2 (stereo partly drawn) [Butyl-carbamic acid (S)-bicyclo[2.2.1]hept-2-yl ester] | 110000 | 2200
CCCCNC(=O)OC12CC3CC(CC(C3)C1)C2 [Butyl-carbamic acid adamantan-1-yl ester] | 1900 | 

From BindingDB's records for doi:10.1016/s0960-894x(98)00484-3 (National Chung-Hsing University, 1999)
